Legend:
[1] = target: T1, purified recombinant COX-1 (Ovis aries, UniProt P05979); test: COX-1 enzyme based assay; type: biochemical
T1 sequence (P05979 25-600): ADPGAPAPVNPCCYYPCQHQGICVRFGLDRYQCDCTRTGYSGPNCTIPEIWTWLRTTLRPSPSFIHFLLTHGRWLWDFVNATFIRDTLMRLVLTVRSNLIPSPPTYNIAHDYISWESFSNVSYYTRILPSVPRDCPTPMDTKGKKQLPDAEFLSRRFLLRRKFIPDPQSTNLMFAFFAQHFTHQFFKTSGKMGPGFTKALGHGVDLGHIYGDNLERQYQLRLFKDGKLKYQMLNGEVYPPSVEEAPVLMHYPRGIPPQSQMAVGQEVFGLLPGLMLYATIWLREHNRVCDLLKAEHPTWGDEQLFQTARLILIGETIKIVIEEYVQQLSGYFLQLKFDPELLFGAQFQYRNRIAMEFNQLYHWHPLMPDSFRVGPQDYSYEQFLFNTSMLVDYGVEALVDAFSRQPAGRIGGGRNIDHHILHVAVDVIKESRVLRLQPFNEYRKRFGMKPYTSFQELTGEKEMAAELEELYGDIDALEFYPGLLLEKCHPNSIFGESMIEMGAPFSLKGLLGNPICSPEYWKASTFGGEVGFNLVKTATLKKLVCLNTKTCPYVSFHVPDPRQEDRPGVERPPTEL
Protocol: (§1) COX-1 and COX-2 enzyme based assays were carried out to check the inhibitory potential of test compounds on the production of prostaglandin by purified recombinant COX-1/COX-2 enzyme (Proc. Nat. Acad. Sci. USA, 88, 2692-2696, 1991; J. Clin. Immunoassay 15, 116-120, 1992) In this assay, the potential of test compound to inhibit the production of prostaglandin either by COX-1 or COX-2 from arachidonic acid (substrate) was measured. This was an enzyme based in-vitro assay to evaluate selective COX inhibition with good reproducibility.
(§2) Arachidonic acid was converted to PGH2 (Intermediate product) by COX1/COX-2 in presence or absence of the test compound. The reaction was carried out at 37° C. and after 2 minutes it was stopped by adding 1M HCl. Intermediate product PGH2 was converted to a stable prostanoid product PGF2α by SnCl2 reduction. The amount of PGF2α produced in the reaction was inversely proportional to the COX inhibitory potential of the test compound. The prostanoid product was quantified via enzyme immunoassay (EIA) using a broadly specific antibody that binds to all the major forms of prostaglandin, using Cayman ELISA kit as per the procedure outlined by the manufacturer (Cayman Chemicals, Ann Arbor, USA).

[2] = test system: TNF-α; test: In vitro measurement of TNF-α in LPS-stimulated human PBMC; type: cell-based; details: LPS 1 μg/ml, 18 h
Protocol: This assay determines the effect of test compounds on the production of TNF α in human Peripheral Blood Mononuclear Cells (PBMC). Compounds were tested for their ability to inhibit the activity of TNF α in human PBMC. PBMC were isolated from blood (from healthy volunteers) using BD Vacutainer CPT™ (Cell preparation tube, BD Bio Science) and suspended in RPMI medium (Physiol. Res. 52: 593-598, 2003). The test compounds were pre-incubated with PBMC (0.5 million/incubation well) for 15 minutes at 37° C. and then stimulated with Lipopolysaccharide (Escherichia coli: B4; 1 μg/ml) for 18 h at 37° C. in 5% CO2. The levels of TNFα in cell culture medium were estimated using enzyme linked Immunosorbent assay performed in a 96 well format as per the procedure of the manufacturer (Cayman Chemical, Ann Arbor, USA).

[3] = test system: TNF-α; test: LPS induced sepsis for measurement of TNF-α inhibition in mice; type: in vivo; details: at 5 mg/kg, oral, serum 90 min after LPS
Protocol: The LPS induced sepsis model in mice was performed as described by Les sekut et al (J Lab Clin Med 1994; 124:813-20). Female Swiss albino mice were selected and the body weights were equivalent within each group. The mice were fasted for 20 hours with free access to water. The mice were dosed orally with the test compound suspended in vehicle containing 0.5% Tween 80 in 0.25% Carboxy-methylcellulose sodium salt. The control mice were administered the vehicle alone. After 30 min of oral dosing, mice were injected with 500 μg of Lipopolysaccharide (Escherichia coli, LPS: B4 from Sigma) in phosphate buffer saline solution into the intraperitoneal cavity of the mice. After 90 min of LPS administration mice were bled via retro-orbital sinus puncture. Blood samples were stored overnight at 4° C. Serum samples were collected by centrifuging the samples at 400 rpm for 15 min at 4° C. Immediately the serum samples were analysed for TNFα levels using commercially available mouse TNF-α ELISA kit (Amersham Biosciences) and assay was performed by the manufacturer instruction.

[4] = target: T2, purified recombinant COX-2 (Homo sapiens, UniProt P35354); test: COX-2 enzyme based assay; type: biochemical
T2 sequence (P35354 18-604): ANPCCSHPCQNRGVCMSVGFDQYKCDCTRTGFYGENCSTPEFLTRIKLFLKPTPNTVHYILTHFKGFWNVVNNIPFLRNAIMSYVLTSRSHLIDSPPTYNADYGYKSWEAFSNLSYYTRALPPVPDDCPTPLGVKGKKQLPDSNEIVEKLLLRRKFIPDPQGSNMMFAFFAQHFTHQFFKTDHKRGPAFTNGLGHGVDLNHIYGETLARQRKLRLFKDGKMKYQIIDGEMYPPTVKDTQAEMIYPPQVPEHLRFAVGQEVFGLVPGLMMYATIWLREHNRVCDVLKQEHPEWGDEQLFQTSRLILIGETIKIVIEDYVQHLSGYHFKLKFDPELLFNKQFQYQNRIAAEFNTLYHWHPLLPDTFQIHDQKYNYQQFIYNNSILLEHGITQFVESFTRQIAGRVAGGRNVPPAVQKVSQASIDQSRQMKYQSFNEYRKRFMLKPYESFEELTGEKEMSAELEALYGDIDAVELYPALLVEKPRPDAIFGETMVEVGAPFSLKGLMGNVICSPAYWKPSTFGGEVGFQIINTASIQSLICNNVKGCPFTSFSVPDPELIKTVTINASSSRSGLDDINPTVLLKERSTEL
Protocol: as §1, §2

inhibition at 1 µM ([1]; Conc. 1 μM)	COX-2 Inhibition (%) ([4]; Conc. 1 μM)	inhibition at 10 µM ([1]; Conc. 10 μM)	inhibition at 10 µM ([4]; Conc. 10 μM)	Compound	inhibition at 10 µM [2]	TNF-α Inhibition (%) [3]
51.6%	Not Active	–	–	CSc1ccc(-c2nc3c(c(N)nn3C)c(=O)n2-c2ccc(C)cc2C)cc1 [Example 23, 3-Amino-5-(2,4-dimethylphenyl)-1-methyl-6-[4-(methylthio)phenyl]-1,5-dihydro-4H-pyrazolo[3,4-d]pyrimidin-4-one]	86.3%	92.02 (at 5 mg/kg) %
–	–	3.11%	15.5%	CSc1ccc(-c2nc3c(c(NC(=O)C(F)(F)F)nn3C)c(=O)n2-c2ccc(C)cc2C)cc1 [Example 40, 2,2,2-trifluoro-N-{5-(2,4-dimethylphenyl)-1-methyl-6-[4-(methylthio)phenyl]-4-oxo-4,5-dihydro-1H-pyrazolo[3,4-d]pyrimidin-3-yl}acetamide]	78%	–

Reference: US20090163521A1, “Novel Pyrazolopyrimidinone Derivatives” (ORCHID RESEARCH LABORATORIES LIMITED, priority 2005, published 2009)
